Assay results taken from US20230286928A1, “HETEROCYCLIC COMPOUNDS USEFUL IN THE TREATMENT OF DISEASE” (Epigen Biosciences, Inc., priority 2018, published 2023).

These molecules were tested against T1, LPA1R (Homo sapiens, UniProt Q92633) (assay: Calcium flux assay: inhibition of LPA-stimulated Ca2+ flux (FLIPR, antagonist mode)). Conditions: LPA1R Ca2+ flux functional assay, LPA1R expressing cells challenged with EC80 of LPA, read-out: LPA1 R Antagonist Activity.
T1 construct: host or cells: LPA1R expressing cells (Millipore, GPCR Profiler)
Format: cell-based
Description: Inhibition of LPA-stimulated Ca^2+ flux was used to assess compound potency using FLIPR technology in a 96 well plate format. The assay buffer used was a modified Hanks Balanced Salt Solution (HBSS) where HBSS was supplemented to contain 20 mM HEPES and 2.5 mM Probenecid at pH7.4 (Millipore, GPCR Profiler®). LPA1R expressing cells (Millipore) were plated and prepared 24 hours prior to assay of test articles. Ca^2+ ion flux was assessed from fluorescence of a Fluo-based No Wash Ca^2+ dye. Antagonist data are generated from plates with LPA concentrations sufficient to generate 80% efficacy [EC80]. Percentage inhibition was calculated from a reduction of efficacy according to concentration of compounds of Formula I-VI. For dose responses the inhibition data was used to calculate compound IC50.
The agonist assay was conducted on a FLIPR^TETRA instrument where the test compound(s), vehicle controls, and reference agonist were added to the assay plate after a fluorescence baseline was established. The agonist assay was a total of 180 seconds and was used to assess each compound's ability to activate each GPCR assayed. Upon completion of the agonist assay, the assay plate was removed from the FLIPR^TETRA and incubated at 25° C. for seven (7) minutes. After the incubation period, the assay plate was placed back in the FLIPR^TETRA and the antagonist assay was initiated.
Antagonist Assay: Using EC80 potency values determined during the agonist assay, all pre-incubated sample compound wells were challenged with EC80 concentration of reference agonist after establishment of a fluorescence baseline. The antagonist assay was conducted using the same assay plate that was used for the agonist assay. The antagonist assay was conducted on a FLIPR^TETRA instrument where 9 vehicle controls and EC80 concentration of reference agonist were added to appropriate wells. The antagonist assay was a total of 180 seconds and was used to assess each compound's ability to inhibit each GPCR assayed.
Data Processing: All assay plate data were subjected to appropriate baseline corrections. After baseline corrections were applied, maximum fluorescence values were exported and data processed to calculate percentage activation (relative to Emax reference agonist and vehicle control values), percentage inhibition (relative to EC80 and vehicle control values), and additional statistical values (i.e. Z′, percentage variation between replicate data values) to assess the quality of each plate. Where assay plate data were rejected, additional experiments were conducted. All dose response curves were generated using GraphPad Prism. The curves were fit by utilizing “Sigmoidal Dose Response (Variable Slope)” equation where the bottom parameter was fixed to “0.” Where appropriate, the top parameter was fixed to “100” to better predict potency values when a full curve was not generated by the concentrations assayed.

T1 sequence (Q92633 whole entry): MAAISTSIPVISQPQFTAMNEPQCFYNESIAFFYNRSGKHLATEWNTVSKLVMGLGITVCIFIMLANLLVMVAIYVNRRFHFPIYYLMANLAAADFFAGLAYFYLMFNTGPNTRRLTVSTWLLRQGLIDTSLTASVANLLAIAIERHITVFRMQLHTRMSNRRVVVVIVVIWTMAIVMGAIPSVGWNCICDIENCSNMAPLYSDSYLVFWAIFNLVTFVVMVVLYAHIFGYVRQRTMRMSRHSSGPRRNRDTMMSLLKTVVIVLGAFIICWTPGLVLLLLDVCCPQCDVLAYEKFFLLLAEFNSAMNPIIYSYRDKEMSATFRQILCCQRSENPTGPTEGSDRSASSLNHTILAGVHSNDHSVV

IC50 [nM] | SMILES
< 300 | C[C@@H](OC(=O)Nc1c(F)cnn1-c1ccc(-c2ccc(C3(C(=O)O)CC3)cc2)nc1)c1ccccc1Cl [Compound 1, (R)-1-(4-(5-(5-(((1-(2-chlorophenyl)ethoxy)carbonyl)amino)-4-fluoro-1H-pyrazol-1-yl)pyridin-2-yl)phenyl)cyclopropane-1-carboxylic acid]
< 300 | C[C@@H](OC(=O)Nc1c(Cl)cnn1-c1ccc(-c2ccc(C3(C(=O)O)CC3)cc2)nc1)c1ccccc1Cl [Compound 2, (R)-1-(4-(5-(4-chloro-5-(((1-(2-chlorophenyl)ethoxy)carbonyl)amino)-1H-pyrazol-1-yl)pyridin-2-yl)phenyl)cyclopropane-1-carboxylic acid]
< 300 | C[C@@H](OC(=O)Nc1c(F)cnn1-c1ccc(-c2ccc(C3(C(=O)O)CC3)cc2)cc1)c1ccccc1 [Compound 3, (R)-1-(4′-(4-fluoro-5-(((1-phenylethoxy)carbonyl)amino)-1H-pyrazol-1-yl)-[1,1′-biphenyl]-4-yl)cyclopropane-1-carboxylic acid]
< 300 | C[C@@H](OC(=O)Nc1c(Cl)cnn1-c1ccc(-c2ccc(C3(C(=O)O)CC3)cc2)cc1)c1ccccc1 [Compound 4, (R)-1-(4′-(4-chloro-5-(((1-phenylethoxy)carbonyl)amino)-1H-pyrazol-1-yl)-[1,1′-biphenyl]-4-yl)cyclopropane-1-carboxylic acid]
< 300 | C[C@@H](OC(=O)Nc1c(C#N)cnn1-c1ccc(-c2ccc(C3(C(=O)O)CC3)cc2)cc1)c1ccccc1 [Compound 5, (R)-1-(4′-(4-cyano-5-(((1-phenylethoxy)carbonyl)amino)-1H-pyrazol-1-yl)-[1,1′-biphenyl]-4-yl)cyclopropane-1-carboxylic acid]
< 300 | C[C@@H](OC(=O)Nc1c(C#N)cnn1-c1ccc(-c2ccc(C3(C(=O)O)CC3)cc2)cc1)c1ccccc1Cl [Compound 6, (R)-1-(4′-(5-(((1-(2-chlorophenyl)ethoxy)carbonyl)amino)-4-cyano-1H-pyrazol-1-yl)-[1,1′-biphenyl]-4-yl)cyclopropane-1-carboxylic acid]
< 300 | C[C@@H](OC(=O)Nc1c(F)cnn1-c1ccc(-c2ccc(C3(C(=O)O)CC3)c(F)c2)cc1)c1ccccc1 [Compound 7, (R)-1-(3-fluoro-4′-(4-fluoro-5-(((1-phenylethoxy)carbonyl)amino)-1H-pyrazol-1-yl)-[1,1′-biphenyl]-4-yl)cyclopropane-1-carboxylic acid]
< 300 | C[C@@H](OC(=O)Nc1c(F)cnn1-c1ccc(-c2ccc(C3(C(=O)O)CC3)cc2F)cc1)c1ccccc1 [Compound 8, (R)-1-(2-fluoro-4′-(4-fluoro-5-(((1-phenylethoxy)carbonyl)amino)-1H-pyrazol-1-yl)-[1,1′-biphenyl]-4-yl)cyclopropane-1-carboxylic acid]
< 300 | C[C@@H](OC(=O)Nc1c(Cl)cnn1-c1ccc(-c2ccc(C3(C(=O)O)CC3)c(F)c2)cc1)c1ccccc1 [Compound 9, (R)-1-(4′-(4-chloro-5-(((1-phenylethoxy)carbonyl)amino)-1H-pyrazol-1-yl)-3-fluoro-[1,1′-biphenyl]-4-yl)cyclopropane-1-carboxylic acid]
< 300 | C[C@@H](OC(=O)Nc1c(Cl)cnn1-c1ccc(-c2ccc(C3(C(=O)O)CC3)cc2F)cc1)c1ccccc1 [Compound 10, (R)-1-(4′-(4-chloro-5-(((1-phenylethoxy)carbonyl)amino)-1H-pyrazol-1-yl)-2-fluoro-[1,1′-biphenyl]-4-yl)cyclopropane-1-carboxylic acid]
< 300 | C[C@@H](OC(=O)Nc1c(F)cnn1-c1ccc(-c2ccc(C3(C(=O)O)CC3)cc2Cl)cc1)c1ccccc1 [Compound 11, (R)-1-(2-chloro-4′-(4-fluoro-5-(((1-phenylethoxy)carbonyl)amino)-1H-pyrazol-1-yl)-[1,1′-biphenyl]-4-yl)cyclopropane-1-carboxylic acid]
< 300 | C[C@@H](OC(=O)Nc1c(Cl)cnn1-c1ccc(-c2ccc(C3(C(=O)O)CC3)cc2Cl)cc1)c1ccccc1 [Compound 12, (R)-1-(2-chloro-4′-(4-chloro-5-(((1-phenylethoxy)carbonyl)amino)-1H-pyrazol-1-yl)-[1,1′-biphenyl]-4-yl)cyclopropane-1-carboxylic acid]
< 300 | Cc1cc(C2(C(=O)O)CC2)ccc1-c1ccc(-n2ncc(F)c2NC(=O)O[C@H](C)c2ccccc2)cc1 [Compound 13, (R)-1-(4′-(4-fluoro-5-(((1-phenylethoxy)carbonyl)amino)-1H-pyrazol-1-yl)-2-methyl-[1,1′-biphenyl]-4-yl)cyclopropane-1-carboxylic acid]
< 300 | Cc1cc(C2(C(=O)O)CC2)ccc1-c1ccc(-n2ncc(Cl)c2NC(=O)O[C@H](C)c2ccccc2)cc1 [Compound 14, (R)-1-(4′-(4-chloro-5-(((1-phenylethoxy)carbonyl)amino)-1H-pyrazol-1-yl)-2-methyl-[1,1′-biphenyl]-4-yl)cyclopropane-1-carboxylic acid]
< 300 | C[C@@H](OC(=O)Nc1c(F)cnn1-c1ccc(-c2ccc(C3(C(N)=O)CC3)cc2)cc1)c1ccccc1Cl [Compound 15, (R)-1-(2-chlorophenyl)ethyl (1-(4′-(1-carbamoylcyclopropyl)-[1,1′-biphenyl]-4-yl)-4-fluoro-1H-pyrazol-5-yl)carbamate]
< 300 | C[C@@H](OC(=O)Nc1c(F)cnn1-c1ccc(-c2ccc(C3(C(=O)NS(C)(=O)=O)CC3)cc2F)cc1)c1ccccc1Cl [Compound 16, (R)-1-(2-chlorophenyl)ethyl (4-fluoro-1-(2′-fluoro-4′-(1-((methylsulfonyl)carbamoyl)cyclopropyl)-[1,1′-biphenyl]-4-yl)-1H-pyrazol-5-yl)carbamate]
< 300 | C[C@@H](OC(=O)Nc1c(F)cnn1-c1ccc(-c2ccc(C3(C(=O)NS(C)(=O)=O)CC3)cc2F)cc1)c1ccccc1 [Compound 17, (R)-1-phenylethyl (4-fluoro-1-(2′-fluoro-4′-(1-((methylsulfonyl)carbamoyl)cyclopropyl)-[1,1′-biphenyl]-4-yl)-1H-pyrazol-5-yl)carbamate]
< 300 | C[C@@H](OC(=O)Nc1c(Cl)cnn1-c1ccc(-c2ccc(C3(C(=O)NS(C)(=O)=O)CC3)cc2F)cc1)c1ccccc1Cl [Compound 18, (R)-1-(2-chlorophenyl)ethyl (4-chloro-1-(2′-fluoro-4′-(1-((methylsulfonyl)carbamoyl)cyclopropyl)-[1,1′-biphenyl]-4-yl)-1H-pyrazol-5-yl)carbamate]
< 300 | C[C@@H](OC(=O)Nc1c(Cl)cnn1-c1ccc(-c2ccc(C3(C(=O)NS(C)(=O)=O)CC3)cc2)cc1)c1ccccc1 [Compound 19, (R)-1-phenylethyl (4-chloro-1-(4′-(1-((methylsulfonyl)carbamoyl)cyclopropyl)-[1,1′-biphenyl]-4-yl)-1H-pyrazol-5-yl)carbamate]
< 300 | C[C@@H](OC(=O)Nc1c(F)cnn1-c1ccc(-c2ccc(C3(C(=O)NS(C)(=O)=O)CC3)cc2)cc1)c1ccccc1Cl [Compound 20, (R)-1-(2-chlorophenyl)ethyl (4-fluoro-1-(4′-(1-((methylsulfonyl)carbamoyl)cyclopropyl)-[1,1′-biphenyl]-4-yl)-1H-pyrazol-5-yl)carbamate]
1000 to 50000 | C[C@@H](OC(=O)Nc1c(F)cnn1-c1ccc(-c2ccc(C3(c4nnn[nH]4)CC3)cc2)cc1)c1ccccc1Cl [Compound 21, (R)-1-(2-chlorophenyl)ethyl (1-(4′-(1-(1H-tetrazol-5-yl)cyclopropyl)-[1,1′-biphenyl]-4-yl)-4-fluoro-1H-pyrazol-5-yl)carbamate]
< 300 | C[C@@H](OC(=O)Nc1c(Cl)cnn1-c1ccc(-c2ccc(C3(c4nnn[nH]4)CC3)cc2)cc1)c1ccccc1 [Compound 22, (R)-1-phenylethyl (1-(4′-(1-(1H-tetrazol-5-yl)cyclopropyl)-[1,1′-biphenyl]-4-yl)-4-chloro-1H-pyrazol-5-yl)carbamate]
1000 to 50000 | C[C@@H](OC(=O)Nc1c(Cl)cnn1-c1ccc(-c2ccc(C3(c4nnn[nH]4)CC3)cc2)cc1)c1ccccc1Cl [Compound 23, (R)-1-(2-chlorophenyl)ethyl (1-(4′-(1-(1H-tetrazol-5-yl)cyclopropyl)-[1,1′-biphenyl]-4-yl)-4-chloro-1H-pyrazol-5-yl)carbamate]
1000 to 50000 | C[C@@H](OC(=O)Nc1c(Cl)cnn1-c1ccc(-c2ccc(C3(C(=O)NC#N)CC3)cc2)cc1)c1ccccc1 [Compound 24, (R)-1-phenylethyl (4-chloro-1-(4′-(1-(cyanocarbamoyl)cyclopropyl)-[1,1′-biphenyl]-4-yl)-1H-pyrazol-5-yl)carbamate]
